According to US11730811B2, “Method for treating subject suffering from flavivirus infection” (priority 2017, dated 2023):

Tested on: human microvascular endothelial cells
Assay: in vitro transwell permeability assay (streptavidin-HRP leakage) with DENV NS1
Assay type: cell-based
Conditions: hyaluronidase 0.5 unit/mL to 50 units/mL added with DENV NS1 3 μg/ml for 6 hours; FIG. 6
Description: Vascular leakage is an important feature in several diseases, such as septic shock, viral hemorrhagic fever, cancer metastasis and ischemia-reperfusion injuries. Thus, an in vitro endothelial permeability assay will provide insight into the establishment or progression of such diseases. The transwell permeability assays directly detect the penetration of a specific molecule, which can be detected by a spectrometer-based absorbance reader.
The permeability of human microvascular endothelial cells treated or not with DENV NS1 (3 μg/ml, Cat. No. ENZ-PRT105-0100, Enzo Life Sciences, Inc., NY, U.S.A.), was measured by an in vitro transwell permeability assay that mimics human endothelium in vivo (referring to http://www.bio-protocol.org/e2273). In brief, human microvascular endothelial cells (2×10^5) were grown in a 24-Transwell® (pore size: 0.4 μm, Cat. No. 3414; Corning, Kennebunk, Me., U.S.A.) for 5 days until a confluent monolayer was formed. […] Twenty microliters of medium, from each lower chamber, was transferred to a 96-well plate and analyzed for HRP activity by adding 100 μL 3,3′,5,5′-tetramethylbenzidine (TMB) substrate (Sigma-Aldrich, Cat. No. T4444, St. Louis, Mo., U.S.A.). Color development was detected by an EnSpire Multimode Reader (PerkinElmer, Upplands Väsby, Sweden) at 450 nm.

hyaluronidase
DENV NS1-induced endothelial hyper-permeability: reverse the DENV NS1-induced endothelial hyper-permeability significantly
